“And” between values parts separate entries of the source, which are not always exact repeats. Identical values can stand only once. Inconclusive results and toxic doses are left out. The calls were made as follows: active = survival T/C of 150% or more; inactive = T/C below 125% in these data.
Test system: CD2F1 mice, L1210 leukemia ip, survival T/C
Assay: NCI In Vivo Anticancer Drug Screen. Data for tumor model L1210 Leukemia (intraperitoneal) in CD2F1 (CDF1) mice
Conditions: higher = longer survival
Procedure, shortened: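 Mice carrying a transplanted tumor received test compound or vehicle alone. The value is the measurement in the treated group divided by that in the vehicle-treated control group.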

[1] = endpoint: mean survival time, dose: 100.0 mg/kg/injection, schedule: Q04DX003 (ip), vehicle: saline with Tween-80
[2] = endpoint: mean survival time, dose: 200.0 mg/kg/injection, schedule: Q04DX003 (ip), vehicle: saline with Tween-80
[3] = endpoint: mean survival time, dose: 50.0 mg/kg/injection, schedule: Q04DX003 (ip), vehicle: saline
[4] = endpoint: mean survival time, dose: 25.0 mg/kg/injection, schedule: Q01DX009 (ip), vehicle: saline with Tween-80
[5] = endpoint: mean survival time, dose: 50.0 mg/kg/injection, schedule: Q01DX009 (ip), vehicle: saline with Tween-80
[6] = endpoint: mean survival time, dose: 200.0 mg/kg/injection, schedule: Q01DX001 (ip), vehicle: saline with Tween-80
[7] = endpoint: mean survival time, dose: 400.0 mg/kg/injection, schedule: Q01DX001 (ip), vehicle: saline with Tween-80
[8] = endpoint: mean survival time, dose: 100.0 mg/kg/injection, schedule: Q01DX009 (ip), vehicle: saline with Tween-80
[9] = endpoint: mean survival time, dose: 400.0 mg/kg/injection, schedule: Q04DX003 (ip), vehicle: saline with Tween-80

Measured: T/C

COC(=O)C12OCC34C(CC5C(C)C6=CC(=O)OC6=CC5(C)C3C(O)C1O)OC(=O)C(O)C24 (stereo unspecified)
inactive: endpoint: median survival time, dose: 0.25 mg/kg/injection, schedule: Q01DX005 (ip), vehicle: Klucel (hydroxypropylcellulose) (HPC) 112 % of control | endpoint: median survival time, dose: 0.5 mg/kg/injection, schedule: Q01DX005 (ip), vehicle: Klucel (hydroxypropylcellulose) (HPC) 114 % of control

NC(=S)N/N=C/c1ccc(-c2ccccc2)cc1
inactive: [1] 97 % of control

CC(C)(C)OC(=O)NCC(=O)ON1C(=O)CCC1=O
inactive: [1] 96 % of control | [2] 87 % of control

O=C(CC(O)(C(F)(F)F)C(F)(F)F)CC(O)(C(F)(F)F)C(F)(F)F
inactive: endpoint: mean survival time, dose: 5.0 mg/kg/injection, schedule: Q01DX001 (ip), vehicle: saline with Tween-80 94 % of control | endpoint: mean survival time, dose: 5.0 mg/kg/injection, schedule: Q04DX003 (ip), vehicle: saline 102 % of control | endpoint: mean survival time, dose: 10.0 mg/kg/injection, schedule: Q04DX003 (ip), vehicle: saline 92 % of control

Nc1ccc(-c2ccccc2-c2ccccc2)cc1
inactive: endpoint: mean survival time, dose: 100.0 mg/kg/injection, schedule: Q01DX009 (ip), vehicle: acetone 101 % of control | endpoint: mean survival time, dose: 200.0 mg/kg/injection, schedule: Q01DX009 (ip), vehicle: acetone 105 % of control

CCCCCCCCCCCCCCCC(=O)NCC[N+](C)(C)C
inactive: endpoint: mean survival time, dose: 75.0 mg/kg/injection, schedule: Q01DX001 (ip), vehicle: saline 107 % of control | endpoint: mean survival time, dose: 150.0 mg/kg/injection, schedule: Q01DX001 (ip), vehicle: saline 104 % of control | endpoint: mean survival time, dose: 300.0 mg/kg/injection, schedule: Q01DX001 (ip), vehicle: saline 104 % of control

CC1(COCCOCC2(C)CO2)CO1 (stereo unspecified)
inactive: endpoint: mean survival time, dose: 100.0 mg/kg/injection, schedule: Q01DX009 (ip), vehicle: saline 111 % of control | endpoint: mean survival time, dose: 200.0 mg/kg/injection, schedule: Q01DX009 (ip), vehicle: saline 114 % of control | endpoint: mean survival time, dose: 264.0 mg/kg/injection, schedule: Q04DX003 (ip), vehicle: saline 116 % of control | endpoint: mean survival time, dose: 400.0 mg/kg/injection, schedule: Q04DX003 (ip), vehicle: saline 113 % of control | endpoint: mean survival time, dose: 600.0 mg/kg/injection, schedule: Q04DX003 (ip), vehicle: saline 121 % of control

O=P(O)(O)c1ccc(I)cc1
inactive: [3] 94 % of control | endpoint: mean survival time, dose: 100.0 mg/kg/injection, schedule: Q04DX003 (ip), vehicle: saline 94 % of control | endpoint: mean survival time, dose: 200.0 mg/kg/injection, schedule: Q04DX003 (ip), vehicle: saline 98 % of control

COc1ccccc1NC(=O)Oc1cccc(C)c1
inactive: endpoint: mean survival time, dose: 100.0 mg/kg/injection, schedule: Q04DX002 (ip), vehicle: saline with Tween-80 91 % of control | endpoint: mean survival time, dose: 200.0 mg/kg/injection, schedule: Q04DX002 (ip), vehicle: saline with Tween-80 88 % of control | endpoint: mean survival time, dose: 400.0 mg/kg/injection, schedule: Q04DX002 (ip), vehicle: saline with Tween-80 91 % of control

OCCOCCN1CCN(CCCN2c3ccccc3Sc3ccc(C(F)(F)F)cc32)CC1
inactive: endpoint: mean survival time, dose: 6.25 mg/kg/injection, schedule: Q01DX009 (ip), vehicle: saline 121 % of control

C[CH2][Sn]1([CH2]C)[O]C2C(CO)OC(n3cnc4c(N)ncnc43)C2[O]1 (stereo unspecified)
inactive: endpoint: mean survival time, dose: 1.56 mg/kg/injection, schedule: Q01DX005 (ip), vehicle: other 100 % of control | endpoint: mean survival time, dose: 3.13 mg/kg/injection, schedule: Q01DX005 (ip), vehicle: other 102 % of control | endpoint: mean survival time, dose: 6.25 mg/kg/injection, schedule: Q01DX005 (ip), vehicle: other 104 % of control | endpoint: mean survival time, dose: 12.5 mg/kg/injection, schedule: Q01DX005 (ip), vehicle: other 105 % of control and 106 % of control

C=CN1C(=O)NC2(CCCCC2)C1=O
inactive: [4] 96 % of control | endpoint: mean survival time, dose: 25.0 mg/kg/injection, schedule: Q04DX003 (ip), vehicle: saline with Tween-80 92 % of control | [5] 96 % of control | endpoint: mean survival time, dose: 50.0 mg/kg/injection, schedule: Q04DX003 (ip), vehicle: saline with Tween-80 97 % of control | [1] 95 % of control

Nc1[nH]c(=O)ncc1C(=O)NC(CO)C(=O)O (stereo unspecified)
inactive: endpoint: mean survival time, dose: 6.25 mg/kg/injection, schedule: Q01DX009 (ip), vehicle: saline with Tween-80 100 % of control | endpoint: mean survival time, dose: 12.5 mg/kg/injection, schedule: Q01DX009 (ip), vehicle: saline with Tween-80 102 % of control | [4] 104 % of control

COC(=O)C1(C)CCCC2(C)C1CCC13C(O)C(C(C)C)C1CC23 (stereo unspecified)
inactive: endpoint: mean survival time, dose: 100.0 mg/kg/injection, schedule: Q01DX001 (ip), vehicle: saline with Tween-80 86 % of control | [6] 91 % of control | [7] 97 % of control

CN(C)N=Nc1c(F)c(F)c(C(N)=O)c(F)c1F
inactive: endpoint: mean survival time, dose: 3.13 mg/kg/injection, schedule: Q01DX009 (ip), vehicle: other 115 % of control | endpoint: mean survival time, dose: 6.25 mg/kg/injection, schedule: Q01DX009 (ip), vehicle: other 120 % of control | endpoint: mean survival time, dose: 50.0 mg/kg/injection, schedule: Q01DX009 (ip), vehicle: other 96 % of control | endpoint: mean survival time, dose: 100.0 mg/kg/injection, schedule: Q01DX009 (ip), vehicle: other 105 % of control

Oc1ccccc1/C=N/c1nc(-c2ccccc2)cs1.[Co].[O-]c1ccccc1/C=N/c1nc(-c2ccccc2)cs1
inactive: [6] 86 % of control | [7] 89 % of control

O=C1CCC2(CC1C1C=CCC1)OCCO2 (stereo unspecified)
inactive: [8] 91 % of control | [1] 100 % of control | endpoint: mean survival time, dose: 200.0 mg/kg/injection, schedule: Q01DX009 (ip), vehicle: saline with Tween-80 94 % of control | [2] 102 % of control | endpoint: mean survival time, dose: 400.0 mg/kg/injection, schedule: Q01DX009 (ip), vehicle: saline with Tween-80 100 % of control | [9] 98 % of control

Cc1cc(CC(O)(C(F)(F)Cl)C(F)(F)Cl)cc(C)n1
inactive: [1] 95 % of control | [2] 92 % of control | [9] 90 % of control

CCCCCCCCCCCC[S+](C)C
inactive: endpoint: mean survival time, dose: 10.0 mg/kg/injection, schedule: Q04DX003 (ip), vehicle: Klucel (hydroxypropylcellulose) (HPC) 107 % of control | endpoint: mean survival time, dose: 20.0 mg/kg/injection, schedule: Q04DX003 (ip), vehicle: Klucel (hydroxypropylcellulose) (HPC) 103 % of control | endpoint: mean survival time, dose: 40.0 mg/kg/injection, schedule: Q04DX003 (ip), vehicle: Klucel (hydroxypropylcellulose) (HPC) 98 % of control

CCCOC(C(=O)OC1CCN(C)CC1)(c1ccccc1)c1ccccc1
inactive: endpoint: mean survival time, dose: 12.5 mg/kg/injection, schedule: Q04DX003 (ip), vehicle: saline 108 % of control | endpoint: mean survival time, dose: 25.0 mg/kg/injection, schedule: Q04DX003 (ip), vehicle: saline 102 % of control | [3] 97 % of control

COc1ccc2c(O)c(-c3ccc(OC)c(OC)c3)c(=O)oc2c1
inactive: [4] 96 % of control | [5] 103 % of control | [8] 106 % of control

CC(C)NC(=O)NO
inactive: endpoint: mean survival time, dose: 4.0 mg/kg/injection, schedule: Q03HX024 (ip), vehicle: saline 95 % of control | endpoint: mean survival time, dose: 8.0 mg/kg/injection, schedule: Q03HX024 (ip), vehicle: saline 98 % of control | endpoint: mean survival time, dose: 16.0 mg/kg/injection, schedule: Q03HX024 (ip), vehicle: saline 103 % of control | endpoint: mean survival time, dose: 32.0 mg/kg/injection, schedule: Q03HX024 (ip), vehicle: saline 98 % of control | endpoint: mean survival time, dose: 62.0 mg/kg/injection, schedule: Q03HX024 (ip), vehicle: saline with Tween-80 87 % of control | endpoint: mean survival time, dose: 64.0 mg/kg/injection, schedule: Q03HX024 (ip), vehicle: saline 98 % of control

C[N+](C)(C)CSSC[N+](C)(C)C
inactive: endpoint: mean survival time, dose: 12.5 mg/kg/injection, schedule: Q04DX002 (ip), vehicle: saline 96 % of control | endpoint: mean survival time, dose: 25.0 mg/kg/injection, schedule: Q04DX002 (ip), vehicle: saline 96 % of control | endpoint: mean survival time, dose: 50.0 mg/kg/injection, schedule: Q04DX002 (ip), vehicle: saline 103 % of control

CC(C)CCC(C)C1CCC2C3CCC4CC(=O)CC4(C)C3CCC12C (stereo unspecified)
inactive: [1] 100 % of control | [2] 94 % of control | [9] 97 % of control
